One substance from patent US20110008279A1, “Methods and Compositions Relating to Adhesins as Adjuvants” (priority 2005, published 2011) can be followed below.

For data set [1], the system named is mo-DCs. In words: Real-time PCR of cytokine mRNA in mo-DCs. Type of data set: cell-based, human. The method, then:
Mo-DC were pre-treated or not with IFN-γ 1000 U/ml and stimulated with NadA […] and LPS […] for 3-5-8 h. Treated and untreated cells were pelleted and used for RNA isolation. Total RNA was extracted using the TRIzolÒ reagent (GibcoBRL) according to the manufacturer's instruction, precipitated and resuspended in […] of RNAse free water (Gibco). RNA was quantified with a fluorescence spectrophotometer (BeckmanDU 530). First strand cDNA was prepared from […] of total RNA by using the Superscript™ II Reverse Transcriptase (Invitrogen) with oligodT primers (Sigma Genosys). The cDNA levels of IL12p35, IL12p40, IL-23p19, TNF-α and IL-6 were quantified by Real Time quantitative PCR using a qPCRTM Core Kit for Sybr Green I (Eurogentec) with a GeneAmp 5700 Sequence Detection System according to the manifacturer's instructions (Applied Biosystems). After an initial denaturation step at 95° C. for 10 min, temperature cycling was initiated. Each cycle consisted of 30 sec at 95° C. and 30 sec at 60° C. […]
All amplification products were cloned into a TOPO TA vector (Invitrogen) and quantified by Beckman DU 530 spectrophotometer. […]
The cDNA levels during the linear phase of amplification were normalized against HMBS. […] CT values were determined by the GeneAmp 5700 SDS software using fluorescence threshold manually set and exported into Excel for analysis.

The next data set has as its system Chang cells. In words: NadA binding to Chang cells (heparin, competition with non-labelled NadA). Also on record: species or system human. Particulars: NadA 600 nM, fluorescence microscopy. The method, then: Chang and CHO-K1 cells were incubated for 3 h at 37° C. with Alexa^488-labeled NadAΔ351-405 (250 nM) in the presence or the absence of non-labelled NadAΔ351-405 (0, 1, 2.5 or 5 μM), washed and analyzed by FACS; results shown are the relative MFI values ±SE, n=3.
Chang cells were incubated at 37° C. for 3 h with NadA 600 nM and re-incubated 10 min at 37° C. with heparin.

Data set [2] relates to mo-DCs. In words: Cytokine and chemokine secretion by mo-DCs (Bio-Plex, ELISA). Type of data set: cell-based, human. Particulars: for IL-12 released on co-stimulation with R-848: NadA 1.5 μM + R-848 1 μM. On the procedure: Reagents used were tested for low endotoxin contamination using the Limulus amoebocyte assay (Sigma). Dendritic cells were generated from human peripheral blood mononuclear cells (PBMC) as described previously. In brief, PBMC were isolated from buffy coats of healthy donors by Ficoll-Paque Plus density gradient centrifugation (Amersham Pharmacia Biotech AB). Separate monocyte and T-cell fractions were obtained from PBMCs by Percoll density gradient centrifugation (Amersham Pharmacia Biotech AB). Residual T and B cells were removed from monocyte fraction by plastic adherence of 3×10^6 cells per well in 6-well plates (Costar) resulting in CD14^+ monocyte populations of >95% purity (determined by flow cytometry). DC were obtained by 6-d culture adherent monocytes in medium with 20 ng/ml IL-4 (5×10^6 units/mg, Peprotech) and 50 ng/ml GM-CSF (1×10^7 units/mg, Peprotech). Cytokines were added again on day 4 in RPMI-1640 medium supplemented with 10% FBS. Following this procedure more than 90% cells belonged to the immature DC phenotype (CD1a^+, HLADRlow, CD14^−, CD83^−, CD86^low, CD80^low). On day 5 cells were treated with nothing or with recombinant human IFN-γ (1000 U/ml) for 18 h before stimulation with NadA (0.0375-5 μM) or LPS (1 μg/ml). After 24 h cells were harvested and analysed. Culture supernatants were collected frozen in liquid nitrogen and conserved at −80° C. for cytokine analysis.
The antibody pairs used, directed against different non-competing epitopes of a given cytokine, were purchased from BioRad. Calibration curves from recombinant cytokine standard were prepared with four-fold dilution steps in RPMI-1640 medium containing 10% FBS. Assays were carried out in 96-well sterile pre-wetted filter plates at room temperature and protected from light. A mixture containing 5000 microspheres per cytokine was incubated together with standard or sample in a final volume of 50 μl for 30 min, under continuous shaking (300 rpm). After three washes by vacuum filtration with Bio-Plex washing buffer a cocktail of biotinylated antibodies diluted in Bio-Plex detection antibody diluent was added (25 μl to each well). After a 30 minutes incubation and washing, Streptavidin-PE diluted in Bio-Plex Assay buffer was added (50 μl per well). At the end of 10 minutes incubation under continuous shaking and after washing the fluorescence intensity of the beads was measured in a final volume of 125 μl of Bio-Plex assay buffer. Data analysis was done with Bio-Plex Manager software using a five-parametric-curve fitting. The detection limits were […].
IL12(p40) was measured by capture enzyme-linked immunosorbent assay (ELISA) with antibody pairs and cytokine standard purchased from Bender MedSystems. The concentrations of IL12(p40) in the cell-free supernatants were determined with ELISA kits according to the manufacturer's instructions. The detection limit of the assays was […].
Background: An ELISA detects its analyte on a solid surface through an enzyme-linked reagent.

Data set [3] relates to alternative pathway in the complement system. As to the kind of experiment: Bactericidal assay, complement alternative pathway (NHS, Mg2+/EGTA, E. coli-pET). Type of data set: biochemical, human. The note with it: 3 μM, control E. coli-pET. The method, then:
Complement activation by the alternative pathway was also investigated. […] The susceptibility to complement-mediated lysis was determined by incubating E. coli-NadA and E. coli-pET with 0-75% NHS at 37° C. for 15 min under agitation. The number of surviving bacterial cells was measured by serial agar plating and colony counting.

The mark [4] stands for this setting: after IFN-γ priming, 24 hours, NadAΔ351-405 1 μM.

“Also recorded” adds a separate entry of the source.

Take NadAΔ351-405: the “IL12-p40, IL12-p35 and IL-23p19 transcription” value in the data set on mo-DCs [1] is “increased by NadA only if cells were primed with IFN-γ”. Further, the “transcription activities of genes encoding IL-6, TNFα, p40, p35 and p19 relative to LPS-activated cells” value in the data set with mo-DCs [1] (IFN-γ primed mo-DCs) was < 1%. In addition, the “protein binding to Chang cells in the presence of heparin” value in the data set with Chang cells was “dose-dependent reduction”. For the same substance, in the data set on mo-DCs [2] (after IFN-γ priming), the “IL-12 released on co-stimulation with R-848” value turned out to be 45 ng/mL; the “IL12-p40 maximal secretion relative to LPS” value is given as ~2%; the “IL-12p70 secretion level relative to LPS” value was < 2%; the “IL-12p70 secretion, dose response” value is given as “reached a plateau below 1 μM NadA”. For the same substance, the “IL-12 released on co-stimulation with R-848” value with mo-DCs [2] (no IFN-γ priming) came to 2 ng/mL. The “increase of IL-12 release by IFN-γ priming” value with mo-DCs [2] (NadA + R-848) is given as 20 fold. In the data set on mo-DCs [2] (absence of IFN-γ priming, up to 5 μM NadA), the “IL-12p70 secretion, dose response” value is on record as “undetected”. Besides, in the data set on mo-DCs [2] (setting [4]), the “IL-6 production relative to maximal LPS production” value is given as ~24% and the “TNFα production relative to maximal LPS production” value is recorded as ~24%. Besides, the “NadA concentration at which IL-6, TNFα and IL-8 were evident” value with mo-DCs [2] (non-primed cells) was “higher than 1 μM”. Besides, the “IL-8 secretion relative to that induced by LPS” value with mo-DCs [2] (with and without IFN-γ priming) is recorded as ~24%. The IL-10 production entry with mo-DCs [2] (with or without IFN-γ priming, up to 5 μM NadA) is listed as “Under no condition in this example was NadA able to induce IL-10 production; also recorded: undetectable”. The “effect on the alternative pathway” value in data set [3] is on record as “partially inhibit”.
